These results are taken from EP1228077B1, “RUTHENIUM (II) COMPLEXES WITH HIGH ANTITUMORAL AND ANTIMETASTATIC ACTIVITIES” (priority 1999, dated 2001).

Format in all cases: in vivo
Series [1] concerns MCa mammary carcinoma. Kind of series: Example 4: prevention of lung metastases in mice with MCa mammary carcinoma. The note with it: lung metastases on day 21, i.p. treatment day 12 to 17; for Metastases Number: CBA/Lac female mice, 6 per group. How it is done: Six groups composed of 6 CBA\Lac kin female mice, weighing 23±3 g were inoculated on day 0 with 10^6 viable cells (as determined with Trypan blue-exclusion test) of MCa mammary carcinoma, in 0.05 ml volume of Dulbecco's buffered at pH 7.4 calcium and magnesium-free saline physiological solution (D-PBS), by intramuscular injection with a sterile insulin syringe. The tumour cells derive from donors of the same strain, were transplanted with an insulin sterile syringe accordingly to the same procedure two weeks before. The tumour cells in PBS suspension were prepared by mechanical mincing of the tumour mass obtained from donor mice and by further removing tissue and cell debris by filtration through a double layer of sterile gauze and further centrifugation at 250xg for 10 minutes. The kin animals were derived from a colony obtained from Chester Beatthy, London (UK) and grown in the University of Trieste pound according to the procedures for the rearing of kin animals. The MCa mammary carcinoma tumour line derives from a stock, kept in liquid nitrogen, of tumour cells obtained originally from Rudjer Boskovic Institute, Zagreb (HR).
From day 12 to day 17 after tumour implantation, the six groups of mice were treated intraperitoneally using an insulin sterile syringe, respectively with: • Group 1. Control: […] body weight/die of sterile pyrogen-free physiological solution; • Group 2. ASC: 6.69 mg/kg body weight/die of ascorbic acid in sterile and pyrogen-free physiological solution; • Group 3. CYST: 12 mg/kg body weight/die of […] in sterile and pyrogen-free physiological solution; • Group 4. RUT: 35 mg/kg body weight/die of Ruthenium (III) complex, (lmH)[trans-RuCl4(Me2SO)(Im)] in pyrogen-free and sterile physiological solution; • Group 5. RUT-ASC: 35 mg/kg body weight/die of the Ruthenium (III) complex, (ImH)[trans-RuCl4(Me2SO)(Im)] and 12 mg/kg body weight/die of cysteine in sterile and pyrogen-free physiological saline solution; • Group 6. RUT-CYST: 35 mg/kg body weight/die of the Ruthenium (III) complex, (ImH)[trans-RuCl4(Me2SO)(Im)] and 12 mg/kg body weight/die of cysteine in sterile and pyrogen-free physiological saline solution.
The reducing agents ascorbic acid and cysteine were used in a equivalent ratio corresponding to 1 with the Ruthenium (III) complex. The redox reaction was immediate. The administration took place after analytical control of the complete reduction of the Ruthenium (III) complex to Ruthenium (II).
(§1) On day 17 from tumour implantation, the growth of the primary tumour was evaluated and the tumor surgically removed after general anaesthesia of the animals with ketamine. The tumor size was determined by measuring both orthogonal axes of the tumour by means of a caliber, the weight in grams of the rotation solid developed around these axes was measured, considering the tumour density equal to 1 and using the formula. (π/6).a^2.b, wherein a was the minor and b the major axis.
On day 21 from tumour implantation, the mice were sacrificed by cervical dislocation and lung metastases were analyzed. The lungs removed from the animal immediately after sacrifice, were divided in single lobes, which were then examined immediately with a low-magnification microscope equipped with an ocular-grid for the measurement of the metastases sizes from which the two orthogonal a and b axes (with a ≤b) are identified. The metastases were then grouped on the basis of their dimensions and the metastatic tumour weight was calculated as the sum of the weight of each single metastasis, each of them regarded as a rotation solid developed around the above mentioned axes, and with a volume calculated by the same formula used for the primary tumour. The experimental data obtained were therefore processed by appropriate statistical tests. The results are reported in Table 1 wherein the number and weight of lung metastases obtained in each group of animal are shown.

A short description of series [2]: Example 8: systemic toxicity (body weight) in tumour-bearing mice. As to the method: Four groups each composed of 6 CBA/Lac kin female […] weighing 23±3 g. were inoculated on day 0 with tumour cells according to the protocol described in the previous examples. From day 12 to day 17, after tumour implantation, the four groups of mice were treated intraperitoneally using a sterile insulin syringe, respectively with: • Group 1: Control: 10 ml/kg body weight/die of sterile and pyrogen-free physiological solution; • Group 2: ASC: 6.69 mg/kg body weight/die of ascorbic acid in sterile and pyrogen-free physiological solution; • Group 3: RUT: 35 mg/kg body weight/die of Ruthenium (III) complex, (lmH)[trans-RuCl4(Me2SO)(Im)] in sterile and pyrogen-free physiological solution; • Group 4: RUT+ASC: 35 mg/kg body weight/die of Ruthenium (III) complex (lmH)[trans-RuCl4(Me2SO)(lm)] and 6.69 mg/kg body weight/ die of ascorbic acid in sterile and pyrogen-free physiological saline solution.
The reducing agent (ascorbic acid) was used in a equivalent ratio of 1 with the Ruthenium (III) complex. The redox reaction was immediate.
The administration took place after analytical control of the complete reduction of the Ruthenium (III) complex to Ruthenium (II).
On day 18 from tumour implantation, the primary tumour and the spleen were removed and weighed, as described previously.
The experiment confirms the lower toxicity of the Ruthenium (II) complexes of the invention (group 4) with respect to the prior art Ruthenium (III) complexes (group 3).

Series [3] concerns MCa mammary carcinoma. As to the kind of experiment: Example 5: prevention of lung metastases in mice with MCa mammary carcinoma. Particulars: lung metastases on day 23, i.p. treatment day 10 to 15; for Metastases Number: CBA/Lac female mice, 7 per group. How it is done:
In a further experiment similar to the previous one, six groups of animals, each of them composed of 7 CBA/Lac kin female mice, weighing 23±3 g were inoculated on day 0 with cells of MCa mammary carcinoma, according to the protocol described in the previous example. From day 10 to day 15 after tumour implantation, the 6 groups of mice were treated intraperitoneally using a sterile insulin syringe, respectively with: • Group 1: […] RUT: 35 mg/kg body weight/die of Ruthenium (III) complex, (ImH)[trans-RuCl4(Me2SO)(Im)] in sterile and pyrogen-free physiological saline solution; • Group 5: […] The reducing agents glutathione and cysteine were used in an equivalent ratio of 1 with the Ruthenium (III) complex. The redox reaction was immediate. The administration took place after the analytical control of total reduction of the Ruthenium (III) to Ruthenium (II) complexes. On day 16 from tumour implantation, the growth of the primary tumour as described in the previous example was evaluated. On day 23 from tumour implantation, the mice were sacrificed and the metastases were evaluated as in previous example. The experimental data obtained were processed by appropriate statistical tests and reported in Table 2, wherein the number and weight of lung metastases obtained in the treated group of animals are also reported.

Series [4] is described as follows: Example 7: systemic toxicity (body weight, spleen weight) in tumour-bearing mice. As to the method: Four groups, each of them composed of 7 CBA/Lac-kin female mice weighing 23±3 g on day 0 were inoculated with MCa mammary carcinoma cells according to the protocol described in the previous examples. From day 11 to day 16 after tumour implantation, the four groups of mice were treated intraperitoneally using a sterile insulin syringe, respectively with: • Group 1: Control: 10 ml/kg body weight/die of sterile and pyrogen-free physiological solution; • Group 2: CYST: 2 mg/kg body weight/die of cysteine in sterile and pyrogen-free physiological solution; • Group 3: RUT: 35 mg/kg body weight/die of Ruthenium (III) complex (lmH)[trans-RuCl4(Me2SO)(Im)] in sterile and pyrogen-free physiological solution; • Group 4: RUT-CYST: 35 mg/kg body weight/die of Ruthenium (III) complex , (ImH)[trans-RuCl4(Me2SO)(lm)] and 12 mg/kg body weight/die of cysteine in sterile and pyrogen-free physiological solution.
The reducing agent (cysteine) was used in a equivalent ratio of 1with the Ruthenium (III) complex. The redox reaction was immmediate.
The administration took place after analytical control of the complete reduction of the Ruthenium (III) to Ruthenium (II) complexes.
(§2) On day 17 from tumour implantation, the mice were sacrificed, the primary tumour and the spleen were removed and analysed as in the previous example. […]
The data reported in the Table 4 indicate how the body weight and the spleen weight, which are indicators of the systemic toxicity of the treatment, turned out to be more similar to the control (group 1) when the mice were treated with the Ruthenium (II) complexes according to the invention (group 4) than when treated with Ruthenium (III) (group 3) only.

In series [5] the test system is MCa mammary carcinoma. Kind of series: Example 7: primary tumour weight variation in mice with MCa mammary carcinoma. The note with it: weight variation with respect to the controls, day 11 to day 17; i.p. treatment day 11 to 16. How it is done:
as §1
Four groups, each of them composed of 7 CBA/Lac-kin female mice weighing 23±3 g on day 0 were inoculated with MCa mammary carcinoma cells according to the protocol described in the previous examples. […]
as §2

Series [6] concerns Lewis lung carcinoma (LLC). As to the kind of experiment: Example 6: lung metastases in BD2F1 mice with Lewis lung carcinoma. Particulars: day 20; treatment day 8 to 13. As to the method: Groups of 7 BD2F1 female mice were inoculated by means of intramuscular injection on day 0 with cells of Lewis lung carcinoma (LLC). From day 8 to day 13 the animals were treated with the Ruthenium (III) complex [trans-RuCl4(DMSO)(lm)](lmH), (compound of formula II) and with the Ruthenium (II) complex, trans-RuCl2(DMSO)4, both belonging to the state of the art. On day 20 from tumour implantation, the mice were sacrificed and the metastases evaluated. All the procedures of the experiments were carried out as reported in the previous examples.

The mark [7] stands for this setting: day 17, after i.p. treatment day 11 to 16.

As for `O=C1O[C@H]([C@@H](O)CO)C(O)=C1O` [ASC, ascorbic acid], in series [1], the “%T/C (metastases weight in the treated animals/metastases weight in the controls)” value is 86%, the “Metastases Weight” value turned out to be 81.5 ± 14 mg, the “a.p./a.t (number of animals devoid of metastases/ total number of animals)” value was 0/6 and the “Metastases Number” value turned out to be 18.3± 8.6. Also, the “Body weight (day 12)” value in series [2] (day 12, start of i.p. treatment) is recorded as 27.6±0.7. Also, in series [2] (day 18, after i.p. treatment day 12 to 17), the “Body weight (day 18)” value was 26.7±1.2.
As for `N[C@@H](CS)C(=O)O` [CYST, cysteine], in series [1], the “%T/C (metastases weight in the treated animals/metastases weight in the controls)” value stood at 103%, the “Metastases Weight” value was determined as 94.6 ± 26 mg, the “a.p./a.t (number of animals devoid of metastases/ total number of animals)” value is reported as 0/6 and the “Metastases Number” value came out at 35.0± 13.5. In addition, in series [3], the “%T/C (metastases weight in the treated animals/metastases weight in the controls)” value was determined as 76%, the “Metastases Weight” value turned out to be 141.2 ± 15.1 mg and the “Metastases Number” value was determined as 30.5±7.2. Besides, the “% variation (body weight)” value in series [4] (body weight variation with respect to the controls, day 11 to 17) was -2.5%. For the same compound, the “Body weight (day 11)” value in series [4] (day 11, start of i.p. treatment) was found to be 30.5±0.6. In series [4] (setting [7]), the “Body Weight (day 17)” value is reported as 28.8±0.6 and the “Spleen weight (day 17)” value worked out at 297± 3.3.
Turning to `N[C@@H](CCC(=O)N[C@@H](CS)C(=O)NCC(=O)O)C(=O)O` [GLU, glutathione], in series [3], the “%T/C (metastases weight in the treated animals/metastases weight in the controls)” value was 75%, the “Metastases Weight” value came to 138.8 ± 20.5 mg and the “Metastases Number” value is on record as 47.0±3.9.
Regarding `CS(C)=O.[Cl-].[Cl-].[Cl-].[Cl-].[Ru+3].c1c[nH+]c[nH]1.c1c[nH]cn1` [RUT, (ImH)[trans-RuCl4(Me2SO)(Im)]], in series [1], the “%T/C (metastases weight in the treated animals/metastases weight in the controls)” value was 16%, the “Metastases Weight” value came out at 15.2 ± 2.3 mg, the “a.p./a.t (number of animals devoid of metastases/ total number of animals)” value is given as 0/6 and the “Metastases Number” value came to 7.0± 1.9. In addition, in series [3], the “%T/C (metastases weight in the treated animals/metastases weight in the controls)” value was found to be 45%, the “Metastases Weight” value came out at 83.6 ± 4.5 mg and the “Metastases Number” value came out at 27.5±3.0. In addition, in series [5], the “% Variation of the primary tumour” value is listed as -30.3%. In series [2] (mouse, in vivo, ip), the “Body weight (day 12)” value is listed as 27.0±0.9 and the “Body weight (day 18)” value stood at 23.3±0.8. Further, in series [6], the “Lung Metastases Number %T/C” value worked out at 38%, the “Lung Metastases Weight” value turned out to be 47.6±11.5 and the “Lung Metastases Weight %T/C” value stood at 25%. For the same compound, in series [4] (mouse, in vivo, ip), the “Body Weight (day 17)” value came to 26.5±0.8, the “Body weight (day 11)” value was found to be 30.0±1.0 and the “Spleen weight (day 17)” value turned out to be 197± 8.8.
For `C[SH](C)(=O)[Ru]([Cl])([Cl])([SH](C)(C)=O)([SH](C)(C)=O)[SH](C)(C)=O` [trans-RuCl2(DMSO)4], in series [6], the “Lung Metastases Number %T/C” value amounted to 82%, the “Lung Metastases Weight” value is on record as 85.5±19.3 and the “Lung Metastases Weight %T/C” value is 45%.
